Source: US9731001B2, “Three-dimensional cavities of dendritic cell immunoreceptor (DCIR), compounds binding thereto and therapeutic applications related to inhibition of human immunodeficiency virus type-1 (HIV-1)” (priority 2011, dated 2017)
Entries after “also recorded” stand apart in the source; their conditions may differ.

What was measured:
Format in all cases: cell-based
[1] = test system: HIV-1 (NL4-3/Balenv); test: HIV-1 infection assay on iMDDCs (p24 in supernatant); details: IM-MDDCs, NL4-3balenv 2 h, culture up to 9 days
Experimental: (§1) FIG. 7 is bar graphs showing that selected site A and site B inhibitors decrease HIV-1 binding and infection of IM-MDDCs. Upper panel: IM-MDDCs were treated with two chemical inhibitors directed against site A (A1 and A4) and two inhibitors directed against site B (B1 and B2) (or DMSO) for 10 min at 37° C. Next, cells were pulsed with NL4-3balenv for 60 min at 37° C. and rinsed extensively before measuring p24 content. Lower panel: In some experiments, similarly treated IM-MDDCs were pulsed with NL4-3balenv for 2 h at 37° C., rinsed extensively, and maintained in complete culture medium supplemented with GM-CSF and IL-4 for up to 9 days with medium replenishment every 3 days. Cell-free culture supernatants were quantified by measuring p24 content. Data shown correspond to the means±SEM of 3 independent experiments performed in triplicate. The asterisks denotes statistically significant data (*, P<0.05; **, P<0.01; ***, P<0.001).
(§2) For assessing binding/entry, iMDDCs (3×10^5 cells in a final volume of 300 μl) were pre-treated with 10 μM of different chemical inhibitors for 10 min and exposed to NL4-3/Balenv (30 ng of p24) for 60 min at 37° C. After three washes with PBS, cells were re-suspended in PBS containing 1% BSA. The p24 content was determined by ELISA, while susceptibility of iMDDCs to HIV-1 infection was assessed by initially exposing 3×10^5 cells to NL4-3/Balenv (30 ng) at 37° C. for 2 h. After three washes with PBS, cells were maintained in complete RPMI 1640 supplemented with GM-CSF and IL-4 in 96-well plates, in a final volume of 200 μl. Every 3 days and for a 9-day period, half of the conditioned medium was collected and kept at −20° C. until assayed. Virus production was estimated as above by measuring p24 levels by ELISA.

[2] = target: T1, DCIR (Homo sapiens, UniProt Q9UMR7); test: HIV-1 binding/entry assay on Raji-CD4-DCIR cells (cell-associated p24); details: 10 μM pre-treatment 10 min; NL4-3 60 min; p24 content
T1 construct: expressed in transfected cells; host or cells: Raji-CD4 (human B cell line stably expressing human CD4), retroviral transduction
T1 sequence (Q9UMR7 1-237): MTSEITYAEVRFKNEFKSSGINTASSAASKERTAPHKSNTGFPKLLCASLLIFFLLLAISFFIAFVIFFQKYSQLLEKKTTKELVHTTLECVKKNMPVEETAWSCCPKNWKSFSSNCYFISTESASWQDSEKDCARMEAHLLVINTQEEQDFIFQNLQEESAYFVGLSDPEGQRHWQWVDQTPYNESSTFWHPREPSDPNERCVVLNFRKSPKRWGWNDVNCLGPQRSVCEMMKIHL
Experimental: FIG. 4 is a bar graph showing that inhibitors decrease HIV-1 binding on DCIR. Raji-CD4-DCIR cells were treated with 10 μM of four site A inhibitors (A1, A2, A3 and A4) and three site B inhibitors (B1, B2 and B3) (or with vehicle (DMSO) only) for 10 min at 37° C. Thereafter, cells were pulsed with NL4-3 for 60 min. After three washes with PBS to remove unadsorbed virus, the abundance of cell-associated viruses was quantified by measuring p24 content. Data shown correspond to the means±SEM of three independent experiments performed with triplicate samples. The asterisk (*) denotes statistically significant data (*, P<0.05, ** P<0.01, *** P<0.001).
(§3) Where indicated, 1×10^6 parental Raji-CD4 cells (DCIR-negative), Raji-CD4-DCIR or Raji-DC-SIGN transfectants were pre-treated with the indicated amount of a chemical inhibitor for 10 min. Cells were then pulsed with NL4-3 (an equivalent of 100 ng of p24) for 60 min at 37° C. The virus-cell mixture was then washed three times with PBS to remove unbound virus and re-suspended in PBS containing 1% BSA. Binding/entry was then determined by the p24 content by ELISA as above. For the infection assay, Raji-CD4 and Raji-CD4-DCIR (1×10^6 cells) were exposed to NL4-3 viral stock (100 ng of p24) for 2 h at 37° C. After three washes with PBS to remove excess virus, cells were maintained in culture for up to 9 days. Cell-free culture supernatants were collected at the indicated time points and assayed for p24 content.

[3] = test system: HIV-1 (NL4-3); test: HIV-1 infection assay on Raji-CD4 and Raji-CD4-DCIR cells (p24 in supernatant); details: Raji-CD4 vs Raji-CD4-DCIR, NL4-3 2 h, culture 3 d
Experimental: FIG. 5 is a bar graph showing that specific inhibitors against the site A (A1, A4) and site B (B1, B2) decrease infectivity of Raji-CD4-DCIR. Raji-CD4 and Raji-CD4-DCIR were treated with the inhibitors selected following experiments described in FIG. 4, or DMSO. Cells were then exposed to NL4-3 for 2 h, rinsed and maintained in culture for 3d. Cell-free culture supernatants were collected and assayed for p24 content. Data shown correspond to the means±SEM from 3 independent experiments performed with triplicate samples. The asterisk (*) denotes statistically significant data (*, P<0.05, ** P<0.01, *** P<0.001).
as §3

[4] = target: T2, DC-SIGN (Homo sapiens, UniProt Q9NNX6); test: HIV-1 binding to Raji-DC-SIGN cells (p24); details: NL4-3 60 min
T2 construct: expressed in transfected cells; host or cells: Raji cells stably transfected with a DC-SIGN plasmid
T2 sequence (Q9NNX6 1-404): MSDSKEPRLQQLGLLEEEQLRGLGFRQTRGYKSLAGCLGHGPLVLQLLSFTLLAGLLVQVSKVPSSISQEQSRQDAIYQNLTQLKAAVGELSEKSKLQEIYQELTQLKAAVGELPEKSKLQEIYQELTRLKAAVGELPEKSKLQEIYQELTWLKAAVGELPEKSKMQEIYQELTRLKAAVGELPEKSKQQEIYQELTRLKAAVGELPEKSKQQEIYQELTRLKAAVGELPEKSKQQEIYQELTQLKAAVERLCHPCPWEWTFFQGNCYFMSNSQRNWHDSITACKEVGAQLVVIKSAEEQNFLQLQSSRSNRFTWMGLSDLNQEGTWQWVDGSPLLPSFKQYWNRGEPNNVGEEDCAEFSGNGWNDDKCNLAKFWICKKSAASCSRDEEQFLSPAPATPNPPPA
Experimental: Raji-DC-SIGN cells were treated for 10 min at 37° C. with inhibitors A1 and A4 directed against the site A and B1 and B2 directed against the site B, or with DMSO. Afterwards, cells were pulsed with NL4-3 for 60 min, rinsed thrice with PBS were made to remove unadsorbed virus, and cell-associated viruses were quantified by measuring p24 content. Data shown correspond to the means±SEM of 3 independent experiments performed in triplicate.
as §3

[5] = test system: HIV-1 (NL4-3/Balenv); test: HIV-1 binding assay on iMDDCs (p24); details: IM-MDDCs, 10 μM pre-incubation 10 min, NL4-3balenv 60 min
Experimental: as §1, §2

| SMILES | productive infection of DCs [1] | HIV-1 attachment to Raji-CD4-DCIR cells [2] | HIV-1 production [3] | HIV-1 binding to DC-SIGN [4] | HIV-1 binding to DCs [5] |
| --- | --- | --- | --- | --- | --- |
| O=C(/C=C/C=C/c1ccccc1)c1ccccc1 [Compound A1, 1,5-diphenyl-2,4-pentadien-1-one] | blocked productive infection | statistically significant decrease; also recorded: proved active against HIV-1 binding | decreased HIV-1 production only in DCIR-expressing cells | do not block HIV-1 attachment to DC-SIGN | decreased significantly |
| O=C(c1ccccc1)c1cc2ccccc2o1 [Compound B1, 1-benzofuran-2-yl(phenyl)methanone] | blocked productive infection | statistically significant decrease; also recorded: proved active against HIV-1 binding | decreased HIV-1 production only in DCIR-expressing cells | do not block HIV-1 attachment to DC-SIGN | decreased significantly |
| Cc1ccc(/N=[N+](\[O-])c2ccc(C)cc2)cc1 [Compound B2, 1-methyl-4-[(4-methylphenyl)-NNO-azoxy]benzene] | blocked productive infection | statistically significant decrease | decreased HIV-1 production only in DCIR-expressing cells | do not block HIV-1 attachment to DC-SIGN | decreased significantly |
